Experimental data: ChEMBL document CHEMBL1127646, “Mechanism-based isocoumarin inhibitors for blood coagulation serine proteases. Effect of the 7-substituent in 7-amino-4-chloro-3-(isothioureidoalkoxy)isocoumarins on inhibitory and anticoagulant potency” (J Med Chem, 1994)

Tested on: not listed separately
Test: Anticoagulant activity was determined in Ortho-activated thrombofax (APTT) assay at a dose 32 uM in pig plasma
Type: functional, Sus scrofa

| Compound | APTT [s] |
| --- | --- |
| C[C@@H](NC(=O)Nc1ccc2c(Cl)c(OCCSC(=N)N)oc(=O)c2c1)c1ccccc1 | >120 |

Molecular target: Prothrombin (Bos taurus) (UniProt P00735)
Test: Inhibition of bovine thrombin (inhibitor concentration 1.2-54 uM)

| Compound | K obs / 1 [M⁻¹ s⁻¹] |
| --- | --- |
| CC(C)(C)OC(=O)N[C@H](Cc1ccccc1)C(=O)Nc1ccc2c(Cl)c(OCCCSC(=N)N)oc(=O)c2c1 | 330 |
| CC(C)(C)OC(=O)N[C@@H](Cc1ccccc1)C(=O)Nc1ccc2c(Cl)c(OCCCSC(=N)N)oc(=O)c2c1 | 190 |
| C[C@@H](NC(=O)Nc1ccc2c(Cl)c(OCCSC(=N)N)oc(=O)c2c1)c1ccccc1 | 29500 |
| C[C@H](N)C(=O)N[C@@H](C)C(=O)Nc1ccc2c(Cl)c(OCCSC(=N)N)oc(=O)c2c1 | 1070 |
| N=C(N)SCCCOc1oc(=O)c2cc(NC(=O)NCc3ccccc3)ccc2c1Cl | 420 |
| CC(C)(C)OC(=O)N[C@H](Cc1ccccc1)C(=O)Nc1ccc2c(Cl)c(OCCSC(=N)N)oc(=O)c2c1 | 1090 |
| N=C(N)SCCOc1oc(=O)c2cc(NC(=O)Nc3cccc4ccccc34)ccc2c1Cl | 17500 |
| CC(C)NC(=O)Nc1ccc2c(Cl)c(OCCSC(=N)N)oc(=O)c2c1 | 4100 |
| C[C@H](NC(=O)OC(C)(C)C)C(=O)N[C@@H](C)C(=O)Nc1ccc2c(Cl)c(OCCSC(=N)N)oc(=O)c2c1 | 1530 |
| N=C(N)SCCCOc1oc(=O)c2cc(NC(=O)[C@H](N)Cc3ccccc3)ccc2c1Cl | 400 |
| N=C(N)SCCOc1oc(=O)c2cc(NC(=O)[C@@H](N)Cc3ccccc3)ccc2c1Cl | 4240 |
| N=C(N)SCCCOc1oc(=O)c2cc(NC(=O)CCc3ccccc3)ccc2c1Cl | 820 |
| CC(=O)Nc1ccc2c(Cl)c(OCCCSC(=N)N)oc(=O)c2c1 | 420 |
| N=C(N)SCCCOc1oc(=O)c2cc(NC(=O)[C@@H](N)Cc3ccccc3)ccc2c1Cl | 180 |
| CC(C)(C)OC(=O)N[C@@H](Cc1ccccc1)C(=O)Nc1ccc2c(Cl)c(OCCSC(=N)N)oc(=O)c2c1 | 1040 |

Molecular target: T1, Coagulation factor III (Sus scrofa) (UniProt Q6RCS8)
T1 sequence (whole entry): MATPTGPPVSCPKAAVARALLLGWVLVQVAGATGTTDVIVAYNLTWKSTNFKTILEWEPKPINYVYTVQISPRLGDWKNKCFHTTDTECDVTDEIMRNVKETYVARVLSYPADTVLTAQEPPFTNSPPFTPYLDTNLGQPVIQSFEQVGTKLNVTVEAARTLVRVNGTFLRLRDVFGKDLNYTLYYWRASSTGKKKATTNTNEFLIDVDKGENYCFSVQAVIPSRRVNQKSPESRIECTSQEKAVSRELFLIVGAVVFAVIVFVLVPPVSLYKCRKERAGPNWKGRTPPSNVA
Test: Anticoagulant activity in PT assay at a dose of 32 uM

| Compound | PT [s] |
| --- | --- |
| C[C@@H](NC(=O)Nc1ccc2c(Cl)c(OCCSC(=N)N)oc(=O)c2c1)c1ccccc1 | 26.2 |

Tested on: not listed separately
Test: Hydrolysis half life (t1/2)
Type: ADME

| Compound | half-life [min] |
| --- | --- |
| CC(C)(C)OC(=O)N[C@H](Cc1ccccc1)C(=O)Nc1ccc2c(Cl)c(OCCCSC(=N)N)oc(=O)c2c1 | 55 |
| CC(C)(C)OC(=O)N[C@@H](Cc1ccccc1)C(=O)Nc1ccc2c(Cl)c(OCCCSC(=N)N)oc(=O)c2c1 | 51 |
| C[C@@H](NC(=O)Nc1ccc2c(Cl)c(OCCSC(=N)N)oc(=O)c2c1)c1ccccc1 | 62 |
| N=C(N)SCCCOc1oc(=O)c2cc(NC(=O)NCc3ccccc3)ccc2c1Cl | 148 |
| CC(C)(C)OC(=O)N[C@H](Cc1ccccc1)C(=O)Nc1ccc2c(Cl)c(OCCSC(=N)N)oc(=O)c2c1 | 42 |
| C[C@H](NC(=O)OC(C)(C)C)C(=O)N[C@@H](C)C(=O)Nc1ccc2c(Cl)c(OCCSC(=N)N)oc(=O)c2c1 | 40 |
| N=C(N)SCCCOc1oc(=O)c2cc(NC(=O)[C@H](N)Cc3ccccc3)ccc2c1Cl | 46 |
| N=C(N)SCCOc1oc(=O)c2cc(NC(=O)[C@@H](N)Cc3ccccc3)ccc2c1Cl | 18 |
| N=C(N)SCCCOc1oc(=O)c2cc(NC(=O)CCc3ccccc3)ccc2c1Cl | 66 |
| CC(=O)Nc1ccc2c(Cl)c(OCCCSC(=N)N)oc(=O)c2c1 | 68 |
| N=C(N)SCCCOc1oc(=O)c2cc(NC(=O)[C@@H](N)Cc3ccccc3)ccc2c1Cl | 42 |
| CC(C)(C)OC(=O)N[C@@H](Cc1ccccc1)C(=O)Nc1ccc2c(Cl)c(OCCSC(=N)N)oc(=O)c2c1 | 39 |

Molecular target: Coagulation factor X (Homo sapiens) (UniProt P00742)
Sequence (P00742 41-179 limits assumed): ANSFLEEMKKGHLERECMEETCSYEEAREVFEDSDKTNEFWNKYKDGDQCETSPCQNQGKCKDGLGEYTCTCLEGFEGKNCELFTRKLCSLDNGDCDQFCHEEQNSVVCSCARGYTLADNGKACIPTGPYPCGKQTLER
Sequence (P00742 235-488 limits assumed): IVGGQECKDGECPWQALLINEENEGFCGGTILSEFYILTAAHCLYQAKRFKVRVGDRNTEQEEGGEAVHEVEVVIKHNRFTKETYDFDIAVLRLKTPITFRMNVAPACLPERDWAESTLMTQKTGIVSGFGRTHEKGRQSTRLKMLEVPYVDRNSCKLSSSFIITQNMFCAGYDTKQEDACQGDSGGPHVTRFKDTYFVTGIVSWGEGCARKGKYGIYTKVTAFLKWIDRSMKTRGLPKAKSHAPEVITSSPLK
Test: Inhibition of human factor Xa (inhibitor concentration were 3.6-44 uM)

| Compound | K obs / 1 [M⁻¹ s⁻¹] |
| --- | --- |
| C[C@H](N)C(=O)N[C@@H](C)C(=O)Nc1ccc2c(Cl)c(OCCSC(=N)N)oc(=O)c2c1 | 1490 |
| CC(C)(C)OC(=O)N[C@H](Cc1ccccc1)C(=O)Nc1ccc2c(Cl)c(OCCSC(=N)N)oc(=O)c2c1 | 1620 |
| N=C(N)SCCOc1oc(=O)c2cc(NC(=O)[C@@H](N)Cc3ccccc3)ccc2c1Cl | 3070 |

Molecular target: T2, Coagulation factor XII (Homo sapiens) (UniProt P00748)
T2 sequence (whole entry): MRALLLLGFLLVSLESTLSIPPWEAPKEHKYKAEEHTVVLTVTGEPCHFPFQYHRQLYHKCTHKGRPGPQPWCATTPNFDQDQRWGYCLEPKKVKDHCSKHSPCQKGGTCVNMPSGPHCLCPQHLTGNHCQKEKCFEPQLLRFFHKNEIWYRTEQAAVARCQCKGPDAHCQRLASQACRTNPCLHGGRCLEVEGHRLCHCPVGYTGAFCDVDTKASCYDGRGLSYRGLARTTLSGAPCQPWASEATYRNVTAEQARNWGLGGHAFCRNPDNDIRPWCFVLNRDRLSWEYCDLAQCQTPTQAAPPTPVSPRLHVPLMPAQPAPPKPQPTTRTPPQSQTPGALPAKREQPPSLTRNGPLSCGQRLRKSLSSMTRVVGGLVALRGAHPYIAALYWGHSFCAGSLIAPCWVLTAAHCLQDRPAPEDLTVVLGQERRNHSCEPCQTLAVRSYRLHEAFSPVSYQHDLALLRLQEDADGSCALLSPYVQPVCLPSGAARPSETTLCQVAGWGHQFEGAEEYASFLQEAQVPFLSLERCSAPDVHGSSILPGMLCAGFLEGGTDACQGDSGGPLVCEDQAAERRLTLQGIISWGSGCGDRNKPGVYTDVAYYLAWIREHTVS
Test: Inhibition of human coagulation factor XII (inhibitor concentration were 3.6-4.9 uM)

| Compound | K obs / 1 [M⁻¹ s⁻¹] |
| --- | --- |
| N=C(N)SCCOc1oc(=O)c2cc(NC(=O)[C@@H](N)Cc3ccccc3)ccc2c1Cl | 82000 |

Molecular target: Prothrombin (Homo sapiens) (UniProt P00734)
Test: Inhibition of human thrombin (inhibitor concentration 1.2-54 uM)

| Compound | K obs / 1 [M⁻¹ s⁻¹] |
| --- | --- |
| CC(C)(C)OC(=O)N[C@H](Cc1ccccc1)C(=O)Nc1ccc2c(Cl)c(OCCCSC(=N)N)oc(=O)c2c1 | 520 |
| CC(C)(C)OC(=O)N[C@@H](Cc1ccccc1)C(=O)Nc1ccc2c(Cl)c(OCCCSC(=N)N)oc(=O)c2c1 | 230 |
| C[C@@H](NC(=O)Nc1ccc2c(Cl)c(OCCSC(=N)N)oc(=O)c2c1)c1ccccc1 | 12000 |
| C[C@H](N)C(=O)N[C@@H](C)C(=O)Nc1ccc2c(Cl)c(OCCSC(=N)N)oc(=O)c2c1 | 880 |
| N=C(N)SCCCOc1oc(=O)c2cc(NC(=O)NCc3ccccc3)ccc2c1Cl | 700 |
| CC(C)(C)OC(=O)N[C@H](Cc1ccccc1)C(=O)Nc1ccc2c(Cl)c(OCCSC(=N)N)oc(=O)c2c1 | 1140 |
| N=C(N)SCCOc1oc(=O)c2cc(NC(=O)Nc3cccc4ccccc34)ccc2c1Cl | 5800 |
| CC(C)NC(=O)Nc1ccc2c(Cl)c(OCCSC(=N)N)oc(=O)c2c1 | 5000 |
| C[C@H](NC(=O)OC(C)(C)C)C(=O)N[C@@H](C)C(=O)Nc1ccc2c(Cl)c(OCCSC(=N)N)oc(=O)c2c1 | 970 |
| N=C(N)SCCCOc1oc(=O)c2cc(NC(=O)[C@H](N)Cc3ccccc3)ccc2c1Cl | 470 |
| N=C(N)SCCOc1oc(=O)c2cc(NC(=O)[C@@H](N)Cc3ccccc3)ccc2c1Cl | 3070 |
| N=C(N)SCCCOc1oc(=O)c2cc(NC(=O)CCc3ccccc3)ccc2c1Cl | 630 |
| CC(=O)Nc1ccc2c(Cl)c(OCCCSC(=N)N)oc(=O)c2c1 | 310 |
| N=C(N)SCCCOc1oc(=O)c2cc(NC(=O)[C@@H](N)Cc3ccccc3)ccc2c1Cl | 220 |
| CC(C)(C)OC(=O)N[C@@H](Cc1ccccc1)C(=O)Nc1ccc2c(Cl)c(OCCSC(=N)N)oc(=O)c2c1 | 1090 |
